For orientation: IC50 means the concentration that gives 50% inhibition. Higher therefore signals lower potency.

Here are results for three molecules from patent US10450260B2, “NO- and H2S-releasing compounds” (RESEARCH FOUNDATION OF THE CITY UNIVERSITY OF NEW YORK, priority 2011, dated 2019).

Assay [1] has as its system MIA PaCa2 pancreatic cancer cell xenograft. The assay is described as follows: MIA PaCa2 xenograft in athymic nude mice. Type of assay: in vivo, mouse. An excerpt: (§1) Male athymic nude (NU/NU) mice, age 5 weeks, were purchased from Charles River Laboratories, Inc., (Wilmington, Mass.) and were housed according to institutional and NIH guidelines.
(§2) Human colon (SW480), Breast (MCF-7, MDA-MB-231), and pancreas (MIA PaCa2) cancer cells (2×10^6) suspended in Matrigel (BD Biosciences, San Jose, Calif.) 50% v/v were inoculated subcutaneously in the right flanks of each mouse (10 mice per group) using a 1-mL syringe and 22-gauge needles. After 10 days the animals from each implanted cell line were randomly divided into 2 groups (N=5/group) and gavaged daily with either vehicle (1% methylcelloluse) or NOSH-naproxen (100 mg/kg) or NOSH (100 mg/kg), the ADT-OH-butyl nitrate compound that releases H2S and NO, in the case of colon cancer xenografts; or NOSH-aspirin (100 mg/kg body weight) in the breast and pancreatic cancers groups. The tumor size was measured every other day using electronic calipers, the tumor volumes were calculated using the following formula: length×width^2/2. The weights of the mice were also recorded every 3 days. Twenty-seven (27) to thirty (30) days post inoculation, the mice were sacrificed, the tumors collected, weighed, and photographed.

Assay [2] has as its system MCF-7 (ER+) breast cancer cell xenograft. The experiment in a line: MCF-7 xenograft in athymic nude mice. Type of assay: in vivo, mouse.
Excerpt: as §1, §2

Assay [3] concerns HT-29 colon cancer cells. The assay is described as follows: Cell proliferation, PCNA expression. Type of assay: cell-based, human. As to conditions: 24 hours. As for the experimental part: Growth inhibition was measured using a colorimetric MTT assay kit (Roche, Indianapolis, Ind.). Proliferation (PCNA) was assessed using an ELISA kit from Calbiochem, (La Jolla, Calif.). Cell cycle phase distributions and apoptosis of control and treated cells were determined as previously described. All methods are described in Chattopadhyay et al., Biochemical Pharmacology, 2012, 83(6), 715-722.

For assay [4], the system named is MDA-MB-231 (ER−) breast cancer cell xenograft. The experiment in a line: MDA-MB-231 xenograft in athymic nude mice. Type of assay: in vivo, mouse.
Excerpt: as §1, §2

Assay [5] relates to eleven different cancer cell lines. The assay is described as follows: MTT cell growth inhibition, all cell lines of the panel. The conditions noted are these: Homo sapiens; 24 hr; colon, breast, pancreas, lung, prostate, leukemia cancer cell lines of Table 1. The assay is classed as cell-based. On the procedure: HT-29, SW-480 and HCT-15 human colon adenocarcinoma, MIA PaCa-2 and BxPC-3 human pancreatic cancer, LNCAP human prostate cancer, A549 human lung cancer, MCF-7 (estrogen receptor positive), MDA-MB 231 and SK-BR-3 (estrogen receptor negative) human breast cancer, and Jurkats human leukemia cell lines were obtained from American Type Tissue Collection (Manassas, Va.). All cells lines were grown as monolayers except for the Jurkats which were grown in suspension. […] Single cell suspensions were obtained by trypsinization (0.05% trypsin/EDTA), and cells were counted using a hemocytometer. Viability was determined by the trypan blue dye exclusion method.
Cell growth inhibitory effect of NOSH compounds were measured using a colorimetric MTT assay kit (Roche, Indianapolis, Ind.). […] The absorbance of the plates was measured on an ELISA reader at a wavelength of 570 nm. […]
HT-29, SW-480 and HCT-15 human colon adenocarcinoma, MIA PaCa-2 and BxPC-3 human pancreatic cancer, LNCAP human prostate cancer, A549 and H383 human lung cancer, MCF-7, MDA-MB 231 and SK-BR-3 human breast cancer and Jurkat T cell human leukemia cell lines were obtained from American Type Tissue Collection (Manassas, Va.) All cells lines were grown as monolayers except for the Jurkat T cells which were grown as suspension culture. […] Viability was determined by the trypan blue dye exclusion method. […]

Assay [6] deals with SW480 colon cancer cell xenograft. The assay is described as follows: SW480 xenograft in athymic nude mice. Type of assay: in vivo, mouse.
Excerpt: as §1, §2

The mark [7] stands for this setting: 100 mg/kg daily, day 30, vs control.
[8] abbreviates: 100 mg/kg daily, day 27, vs control.

With `O=C(CCCO[N+](=O)[O-])Oc1ccccc1C(=O)Oc1ccc(-c2cc(=S)ss2)cc1` [NOSH-1, 4-(3-thioxo-3H-1,2-dithiol-5-yl)phenyl 2-((4-(nitrooxy)butanoyl)oxy)benzoate], the mean tumor volume in assay [1] (100 mg/kg daily gavage, end of study, control 3265±476) worked out at 285±117 mm^3; in assay [2] (100 mg/kg daily gavage, end of study, control 935±93), 48±9 mm^3; in assay [4] (100 mg/kg daily gavage, end of study, control 1886±200) it was 35±9 mm^3. Besides, the results for the “reduction of tumor mass” value in assay [1] (setting [7]), in assay [2] (setting [8]) and in assay [4] (setting [8]) were 75%, 55% and 91%, respectively. Further, the average tumor mass was found to be 0.61 ± 0.29 g in assay [1] (100 mg/kg daily, day 30, control 2.45±2.7); 0.21 ± 0.035 g in assay [2] (100 mg/kg daily, day 27, control 0.46±0.056); 0.11 ± 0.058 g in assay [4] (100 mg/kg daily, day 27, control 1.2±0.33). In addition, the “mean reduction of tumor volume” value is listed as 91% in assay [1] (100 mg/kg daily, vs control); 98% in assay [2] (100 mg/kg daily, vs control); 98% in assay [4] (100 mg/kg daily, vs control). The “reduction of PCNA expression” value came out at 18.2±1.5% in assay [3] (0.5×IC50 (25 nM)), 50.3±3.2% in assay [3] (1×IC50 (50 nM)) and 77.4±2.2% in assay [3] (2×IC50 (100 nM)).
`CC(=O)Oc1ccccc1C(=O)O` [ASA, aspirin, reference compound]: the IC50 in assay [5] was > 5 mM.
On to `CC(C(=O)Oc1ccc(-c2cc(=S)ss2)cc1)c1ccc2cc(OC(=O)CCCO[N+](=O)[O-])ccc2c1` (centres unmarked) [NOSH-7, 6-(1-oxo-1-(4-(3-thioxo-3H-1,2-dithiol-5-yl)phenoxy)propan-2-yl)naphthalen-2-yl 4-(nitrooxy)butanoate], for which the mean tumor volume in assay [6] (100 mg/kg daily gavage, end of study, control 2098±603) came out at 379±73 mm^3. Moreover, the “reduction of tumor mass” value in assay [6] (setting [7]) is 55%. In assay [6] (100 mg/kg daily, day 30, control 1.42±0.48), this molecule displayed an average tumor mass of 0.63 ± 0.11 g. The “mean reduction of tumor volume” value in assay [6] (100 mg/kg daily, vs control) is given as 82%.
